Data taken from patent US20050209157A1, “Short bioactive peptides and methods for their use” (priority 2001, published 2005).
Read-outs that look alike come from different tables or passages of the source. No end group written: not given here.

Tests used:
[1] = system: Pseudomonas aeruginosa ATCC 9027; assay: Antimicrobial assay I, MIC by OD measurement; assay type: cell-based; conditions: 37° C. for 24 hours, absorbance 620 nm
[2] = system: Staphylococcus aureus ATCC 6538; assay: Antimicrobial assay I, MIC by OD measurement; assay type: cell-based; conditions: 37° C. for 24 hours, absorbance 620 nm
[3] = system: yeast (Saccharomyces cerevisiae); assay: Antimicrobial assay I, yeast assay in RPMI 1640; assay type: cell-based; conditions: RPMI 1640 media
BMKC = assay: Anti-cancer assay, MTT, LD50; assay type: cell-based; conditions: BMKC cloned melanoma line, 24 hours with peptide
Text: (§1) Numbers are LD50 values (μg/mL).

H1299 = assay: Anti-cancer assay, MTT, LD50; assay type: cell-based; conditions: 24 hours with peptide, lung large cell carcinoma
Text: as §1

HeLaS3 = assay: Anti-cancer assay, MTT, LD50; assay type: cell-based; conditions: 24 hours with peptide, cervical carcinoma
Text: as §1

MCF7 = assay: Anti-cancer assay, MTT, LD50; assay type: cell-based; conditions: MCF7 breast adenocarcinoma line, MTT, 24 hours with peptide
Text: as §1

PC3 = assay: Anti-cancer assay, MTT, LD50; assay type: cell-based; conditions: 24 hours with peptide, prostate adenocarcinoma
Text: as §1

SW480 = assay: Anti-cancer assay, MTT, LD50; assay type: cell-based; conditions: SW480 colon adenocarcinoma line, 24 hours with peptide
Text: as §1

in vitro [4] = assay type: cell-based, human; conditions: human, human red blood cells, pH 7, hemolytic assay, concentration at 50% hemolysis, 1 hour at 37° C.; read-out: LD50
P. aeruginosa H374 [5] = assay type: cell-based, Pseudomonas aeruginosa; conditions: for MIC Cm-comb.: MIC of chloramphenicol with peptide at ¼ MIC; for MIC Nal-comb.: MIC of nalidixic acid with peptide at ¼ MIC; for FIC Index: 0.5 or less = synergy
Experimental: (§2) The synergistic effects of the inventive peptides with either chloramphenicol or nalidixic acid against efflux mutants of Pseudomonas aeruginosa were investigated. The MIC values were determined for either nalidixic acid or chloramphenicol alone as baselines. Peptides were added at their ¼ MIC concentration, and the concentration of either nalidixic acid or chloramphenicol to arrive at the MIC was determined. […] The fractional inhibitory concentration (FIC) index was used to determine synergy between peptides and antibiotics. Two-fold serial dilutions of antibiotic were tested in the presence of a constant amount of peptide, equal to one quarter of peptide MIC. The FIC index was determined as follows: FIC=0.25+MICantibiotic in combination/MICantibiotic alone. An FIC index of 0.5 or less is considered as synergy.

P. aeruginosa H774 = assay type: cell-based, Pseudomonas aeruginosa; conditions: P. aeruginosa H744; nalidixic acid + peptide at ¼ MIC; 0.5 or less = synergy
Experimental: as §2

P. aeruginosa = assay type: cell-based, Pseudomonas aeruginosa; conditions: P. aeruginosa H744; MIC of nalidixic acid with peptide at ¼ MIC
Experimental: as §2

WI38 = conditions: MTT, 24 hours with peptide; normal fibroblast line
Experimental: (§3) Viability of cells is determined by the dye response. In the following procedure, approximately 1.5×10^4 cells per well were added and viability was determined with the cells in a semi-confluent state. The assay was performed in a 96-well microtiter plate. After addition of peptide, the plate was set for 24 hours. MTT (5 mg/ml in phenol red-free RPMI-1640, 20 μl) was added to each well including positive control wells untreated with peptide. The plate was incubated at 37° C. for 4 hours. The liquid contents of each well was removed, and isopropanol with 0.1 M HCl (100 μl) was added to each well. The plate was sealed with parafilm to prevent evaporation of the isopropanol. The plate is allowed to rest for 5-10 minutes in order to solubilize the precipitate. Purified water (100 μl) was added to each well. Absorbance was determined with an ELISA Reader instrument. Color intensity at 540 nm is proportional to viability of cells.
(§4) WI38 (ATCC No. CCL75) is a normal fibroblast line of lung diploid cells, MCF7 (ATCC No. HTB22) is a breast adenocarcinoma tumor cell line, SW480 (ATCC No. CCL228) is a colon adenocarcinoma tumor cell line, BMKC is a cloned melanoma line derived from Bowes melanoma line HMCB (ATCC No. CRL9607), H1299 (ATCC No. CRL5803) is a lung large cell carcinoma tumor line, HeLaS3 (ATCC No. CCL2.2) is a cervical epitheleal carcinoma tumor cell line, and PC3 (ATCC No. CRL1435) is a prostate adenocarcinoma tumor cell line.

in vitro [6] = conditions: human, WI38 normal lung fibroblast cells, LD50 WI38, WI38 normal lung fibroblast line, MTT, 24 hours with peptide
Experimental: as §3, §4

E. coli UB1005 = assay type: cell-based, Escherichia coli; conditions: mean of three; 16 to 20 hours at 35° C.; in µg/mL
S. typhimurium 14028S = assay type: cell-based, Salmonella typhimurium; conditions: mean of three; 16 to 20 hours at 35° C.; in µg/mL
P. aeruginosa H374 [7] = assay type: cell-based, Pseudomonas aeruginosa; conditions: mean of three; 16 to 20 hours at 35° C.
[8] = chloramphenicol + peptide at ¼ MIC
[9] = nalidixic acid + peptide at ¼ MIC, FIC=0.25+MIC comb/MIC alone

Row | Substance | paerug9027 (MIC) [1] | staph6538 (MIC) [2] | yeast (MIC or MFC) [3] | LD50 BMKC (BMKC) | H1299 LD50 (H1299) | HeLaS3 LD50 (HeLaS3) | LD50 MCF7 (MCF7) | PC3 LD50 (PC3) | LD50 SW480 (SW480) | HC50 at 1 h (in vitro [4]) | MIC Cm-comb. (P. aeruginosa H374 [5]) | MIC Nal-comb. (P. aeruginosa H374 [5]) | FIC Index (P. aeruginosa H374 [5]; [8]) | FIC Index (P. aeruginosa H374 [5]; [9]) | FIC Index (P. aeruginosa H774) | MIC Nal-comb. (P. aeruginosa) | WI38 LD50 (WI38) | CC50 at 24 h (in vitro [6]) | also measured
1 | FAKLLAKALKKL-NH2 [P103] | 25 µg/mL | 10 µg/mL | 100 µg/mL | 75 µg/mL | 150 µg/mL | 70 µg/mL | 46 µg/mL | 330 µg/mL | 90 µg/mL | 650 µg/mL | 8 µg/mL | 625 µg/mL | 0.75 | 0.375 | 1.25 | 624 µg/mL | 26 µg/mL | 26 µg/mL | 
2 | KTKLFKKFAKKLAKKLKKLAKKL-OH [P80] | 100 µg/mL | 10 µg/mL | 100 µg/mL | 76 µg/mL | 64 µg/mL | 97 µg/mL | 29 µg/mL | 28 µg/mL | 35 µg/mL | 900 µg/mL | 4 µg/mL | 2500 µg/mL | 0.5 | 0.75 | 1.25 | 624 µg/mL | 28 µg/mL | 28 µg/mL | 
3 | FAKKLAKKLKKLAKKLAK-OH [P71] | 15 µg/mL | 15 µg/mL | 200 µg/mL | 445 µg/mL | 320 µg/mL | 570 µg/mL | 190 µg/mL | 270 µg/mL | 250 µg/mL |  | 8 µg/mL | 2500 µg/mL | 0.75 | 0.75 | 1.25 | 624 µg/mL | 355 µg/mL | 355 µg/mL | E. coli UB1005 MIC (E. coli UB1005): 2; S. typhimurium 14028S MIC (S. typhimurium 14028S): 8; P. aeruginosa H374 MIC (P. aeruginosa H374 [7]): 4 µg/mL
4 | FAKLLAKALKLKL-NH2 [P101] | 25 µg/mL | 10 µg/mL | 100 µg/mL | 160 µg/mL | 340 µg/mL | 170 µg/mL | 250 µg/mL | 730 µg/mL | 170 µg/mL | 550 µg/mL | 16 µg/mL | 5000 µg/mL | 1.25 | 1.25 | 1.25 | 624 µg/mL | 300 µg/mL | 300 µg/mL | 
5 | FAKLLAKALKKFL-NH2 [P118] | 100 µg/mL | 10 µg/mL | 100 µg/mL | 135 µg/mL | 74 µg/mL | 87 µg/mL | 70 µg/mL | 330 µg/mL | 115 µg/mL | 700 µg/mL | 16 µg/mL | 2500 µg/mL | 1.25 | 0.75 | 1.25 | 624 µg/mL | 170 µg/mL | 170 µg/mL | 
6 | FAKLLAKLAKLKL-NH2 [P66] | 50 µg/mL | 5 µg/mL | 100 µg/mL | 200 µg/mL | 130 µg/mL | 140 µg/mL | 90 µg/mL | 170 µg/mL | 145 µg/mL | 600 µg/mL | 16 µg/mL | 5000 µg/mL | 1.25 | 1.25 | 1.25 | 624 µg/mL | 240 µg/mL | 240 µg/mL | 
7 | FAKKLAKKLAKLAL-NH2 [P45, FAKKLAKKLAKLAL-NH2] | 100 µg/mL | 5 µg/mL | 100 µg/mL | 160 µg/mL | 330 µg/mL | 160 µg/mL | 260 µg/mL | 170 µg/mL | 180 µg/mL | 700 µg/mL | 16 µg/mL | 2500 µg/mL | 1.25 | 0.75 | 1.25 | 624 µg/mL | 200 µg/mL | 200 µg/mL | 
8 | KLALKLALKALKAAKLA-NH2 [P150] | 10 µg/mL | 100 µg/mL | > (> indicates greater than 200 μg/mL) | 190 µg/mL | 185 µg/mL | 320 µg/mL | 160 µg/mL | 74 µg/mL | 235 µg/mL | 650 µg/mL | 8 µg/mL | 1250 µg/mL | 0.75 | 0.5 | 0.75 | 312 µg/mL | 125 µg/mL | 125 µg/mL | 
